Values of other authors in patent US6506434B1, “Process for coating N-[N-(3,3-dimethylbutyl)-L-α-aspartyl]-L-phenylalanine 1-methyl ester onto a carrier” (The NutraSweet Company, priority 1999, dated 2003).

Conditions: relative to sugar; stated as known

Compound: COC(=O)[C@H](Cc1ccccc1)NC(=O)[C@H](CC(=O)O)NCCC(C)(C)C [neotame, N-[N-(3,3-dimethylbutyl)-L-α-aspartyl]-phenylalanine 1-methyl ester]
- sweetening potency (sweeter than sugar): about 8000 ×
